Common to all, as to type: in vivo
Series [1] concerns barnyardgrass. Kind of series: Comparative Example 1: herbicidal effects in preemergence treatment on barnyardgrass under submerged conditions. As to conditions: applied to water surface on the day of seeding, three weeks after application. The text has this: Comparative Example 1 Test on the Herbicidal Effects in Preemergence Treatment on Barnyardgrass Under Submerged Conditions Alluvial soil was put in 1/30000-are styrol cups and admixed with water so that it was submerged at a depth of 4 cm. In each cup, seeds of barnyardgrass were sown, and on the same day as the seeding, emulsifiable concentrates containing compounds of the present invention formulated in accordance with Formulation Example 2 were applied to the water surfaces at predetermined doses after diluted with water. The cups were placed in a greenhouse at 25 to 30° C. to grow the plants. Three weeks after the application, the herbicidal effects against barnyardgrass were determined on the following evaluation scale. The symbol A in the table means barnyardgrass.

Series [2] deals with barnyardgrass. Kind of series: Comparative Example 2: herbicidal effects on barnyardgrass during the vegetation period under submerged conditions. As to conditions: applied to water surface at the 2- or 2.5-leaf stage, three weeks after application. On the procedure: Comparative Example 2 Test on the Herbicidal Effects on Barnyardgrass During the Vegetation Period Under Submerged Conditions Alluvial soil was put in 1/30000-are styrol cups and admixed with water so that it was submerged at a depth of 4 cm. In each cup, seeds of barnyardgrass were sown, and the cups were placed in a greenhouse at 25 to 30° C. to grow the plants. When the barnyardgrass reached the 2- or 2.5-leaf stage, emulsifiable concentrates containing compounds of the present invention and the comparative compounds formulated in accordance with Formulation Example 2 were applied to the water surfaces at predetermined doses after diluted with water. Three weeks after the application, the herbicidal effects were determined on the same evaluation scale as in Test Example 1. The symbol A in the table is the same as defined above.

Series [3] relates to barnyardgrass. Kind of series: Test Example 1: herbicidal effects in preemergence treatment under submerged conditions. As to conditions: dose 2.52 g/a. Summed up:
(§1)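 Submerged conditions, 4 cm water over alluvial soil. Weeds sown and 2.5-leaf rice transplanted; compound applied preemergence to water surface, doses in g per are. Greenhouse, 25 to 30° C., three weeks, then 0–5 mortality rating.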

Series [4] deals with bulrush. Described as above. Conditions: dose 2.52 g/a. In a few lines:
as §1

Series [5] concerns ducksalad. The series is described as above. As to conditions: dose 2.52 g/a. In a few lines:
as §1

For the next series, the system named is transplanted rice. Kind of series: Test Example 1: preemergence treatment under submerged conditions, effect on crop. As to conditions: dose 2.52 g/a. In a few lines:
as §1

For series [6], the system named is barnyardgrass. Kind of series: Test Example 2: herbicidal effects during the vegetation period under submerged conditions. Conditions: treatment during the vegetation period under submerged conditions; dose 2.52 g/a. Summed up:
(§2)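 Barnyardgrass, bulrush and ducksalad were co-sown in alluvial soil flooded to 4 cm and grown in a greenhouse at 25 to 30° C. At the 1- or 2-leaf stage, water-diluted emulsifiable concentrates went onto the water surface at set doses (g/a). Herbicidal effect was scored three weeks later on a graded scale.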

Series [7] concerns bulrush. The description is as above. As to conditions: treatment during the vegetation period under submerged conditions; dose 2.52 g/a. In a few lines: as §2
Series [8] concerns ducksalad. Described as above. As to conditions: treatment during the vegetation period under submerged conditions; dose 2.52 g/a. In a few lines: as §2
For series [9], the system named is Italian ryegrass. Kind of series: Test Example 3: herbicidal effects in soil treatment. As to conditions: dose 3.2 g/a. Summed up:
(§3)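 Seeds were sown in sterilized diluvial soil and covered with about 1.5 cm of soil. Compounds, formulated as emulsifiable concentrates and diluted with water, were sprayed evenly over the soil surface at set doses in g/a. Herbicidal effect was scored on a rating scale three weeks later.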

Series [10] relates to barnyardgrass. Described as above. As to conditions: dose 3.2 g/a. Summed up: as §3
For series [11], the system named is beadstraw. The description is as above. Conditions: dose 3.2 g/a. Summed up:
as §3

Series [12] has as its system common chickweed. The series is described as above. Conditions: dose 3.2 g/a. In a few lines:
as §3

In series [13] the test system is common lambsquater. The description is as above. As to conditions: dose 3.2 g/a. Summed up:
as §3

For series [14], the system named is common ragweed. The series is described as above. Conditions: dose 3.2 g/a. In a few lines:
as §3

Series [15] concerns giant foxtail. The description is as above. Conditions: dose 3.2 g/a. Summed up: as §3
Series [16] concerns large crabgrass. The description is as above. Conditions: dose 3.2 g/a. Summed up:
as §3

Series [17] concerns posumbu knotweed. The description is as above. Conditions: dose 3.2 g/a. Summed up: as §3
The subject of series [18] is redroot pigweed. The description is as above. As to conditions: dose 3.2 g/a. In a few lines:
as §3

Series [19] deals with velvetleaf. The series is described as above. Conditions: dose 3.2 g/a. In a few lines:
as §3

In series [20] the test system is water foxtail. The series is described as above. Conditions: dose 3.2 g/a. In a few lines:
as §3

The test system of series [21] is wild oat. Described as above. Conditions: dose 3.2 g/a. In a few lines:
as §3

The subject of series [22] is Italian ryegrass. Kind of series: Test Example 4: herbicidal effect in foliage treatment. As to conditions: dose 3.2 g/a, three weeks after application. In a few lines:
(§4)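 Post-emergence foliar spray of water-diluted emulsifiable concentrate at predetermined doses (g per are), applied to plants 14 days after sowing in sterile diluvial soil (greenhouse, 25 to 30° C). Visual scale rating of effect taken 3 weeks later.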

The test system of series [23] is barnyardgrass. Described as above. As to conditions: dose 3.2 g/a, three weeks after application. Summed up:
as §4

Series [24] concerns beadstraw. Described as above. Conditions: dose 3.2 g/a, three weeks after application. Summed up:
as §4

Series [25] relates to common chickweed. The series is described as above. Conditions: dose 3.2 g/a, three weeks after application. In a few lines:
as §4

In series [26] the test system is common lambsquater. The description is as above. As to conditions: dose 3.2 g/a, three weeks after application. In a few lines: as §4
For series [27], the system named is common ragweed. The description is as above. Conditions: dose 3.2 g/a, three weeks after application. In a few lines:
as §4

Series [28] deals with giant foxtail. The description is as above. Conditions: dose 3.2 g/a, three weeks after application. Summed up: as §4
Series [29] has as its system large crabgrass. The series is described as above. Conditions: dose 3.2 g/a, three weeks after application. Summed up: as §4
The subject of series [30] is posumbu knotweed. The description is as above. As to conditions: dose 3.2 g/a, three weeks after application. Summed up: as §4
The test system of series [31] is redroot pigweed. The series is described as above. Conditions: dose 3.2 g/a, three weeks after application. In a few lines:
as §4

Series [32] concerns velvetleaf. Described as above. Conditions: dose 3.2 g/a, three weeks after application. Summed up:
as §4

Series [33] relates to water foxtail. Described as above. As to conditions: dose 3.2 g/a, three weeks after application. In a few lines: as §4
Series [34] relates to wild oat. Described as above. Conditions: dose 3.2 g/a, three weeks after application. Summed up: as §4

The values below come from patent US20120029187A1, “HALOALKYLSULFONANILIDE DERIVATIVE” (Nissan Chemical Industries, Ltd., priority 2009, published 2012).

For the compound `CC(C)COC(O)N(c1ccccc1CN1CCCOC1=O)S(=O)(=O)C(F)(F)F` (stereo not drawn) [a, reference compound], the “herbicidal effect, A (barnyardgrass)” value in the series with barnyardgrass [1] (dose 0.16 g/a) is 0 (mortality of less than 5% (almost ineffective)); in the series on barnyardgrass [1] (dose 0.64 g/a) it was 5 (mortality of 90% or above (nearly complete death)); in the series on barnyardgrass [1] (dose 2.52 g/a) it was 5 (mortality of 90% or above (nearly complete death)); in the series with barnyardgrass [2] (dose 0.16 g/a), 0 (mortality of less than 5% (almost ineffective)); with barnyardgrass [2] (dose 0.64 g/a), 0 (mortality of less than 5% (almost ineffective)); with barnyardgrass [2] (dose 2.52 g/a), 5 (mortality of 90% or above (nearly complete death)).
Consider `CC1(C)OCN(Cc2ccccc2NS(=O)(=O)C(F)(F)F)C(=O)C1F` (stereo not drawn) [II-32], for which the “A: barnyardgrass, herbicidal effect (evaluation scale 0-5)” value in the series with barnyardgrass [3], with barnyardgrass [6] and in the series with barnyardgrass [10] was 5 (mortality of 90% or above (nearly complete death)) each time. Moreover, the “B: bulrush, herbicidal effect (evaluation scale 0-5)” value with bulrush [4] and in the series on bulrush [7] was 5 (mortality of 90% or above (nearly complete death)) throughout. Also, the “C: ducksalad, herbicidal effect (evaluation scale 0-5)” value in the series on ducksalad [5] and in the series on ducksalad [8] was 5 (mortality of 90% or above (nearly complete death)) each time. In addition, in the series on transplanted rice, the “a: transplanted rice, effect on crop (evaluation scale 0-5)” value is 0 (mortality of less than 5% (almost ineffective)). The “H: Italian ryegrass, herbicidal effect (evaluation scale 0-5)” value in the series on Italian ryegrass [9] is reported as 5 (mortality of 90% or above (nearly complete death)). Further, the “O: beadstraw, herbicidal effect (evaluation scale 0-5)” value in the series on beadstraw [11] is 3 (mortality of at least 40% and less than 70%). Further, in the series on common chickweed [12], the “N: common chickweed, herbicidal effect (evaluation scale 0-5)” value is 3 (mortality of at least 40% and less than 70%). In addition, in the series with common lambsquater [13], the “L: common lambsquater, herbicidal effect (evaluation scale 0-5)” value is listed as 0 (mortality of less than 5% (almost ineffective)). In addition, in the series with common ragweed [14], the “J: common ragweed, herbicidal effect (evaluation scale 0-5)” value was 5 (mortality of 90% or above (nearly complete death)). The “E: giant foxtail, herbicidal effect (evaluation scale 0-5)” value in the series with giant foxtail [15] is 4 (mortality of at least 70% and less than 90%). In the series on large crabgrass [16], the “D: large crabgrass, herbicidal effect (evaluation scale 0-5)” value was 5 (mortality of 90% or above (nearly complete death)). In the series with posumbu knotweed [17], the “M: posumbu knotweed, herbicidal effect (evaluation scale 0-5)” value is 4 (mortality of at least 70% and less than 90%). For the same compound, in the series with redroot pigweed [18], the “K: redroot pigweed, herbicidal effect (evaluation scale 0-5)” value was 3 (mortality of at least 40% and less than 70%). For the same compound, the “I: velvetleaf, herbicidal effect (evaluation scale 0-5)” value with velvetleaf [19] is 3 (mortality of at least 40% and less than 70%). The “G: water foxtail, herbicidal effect (evaluation scale 0-5)” value in the series with water foxtail [20] is listed as 5 (mortality of 90% or above (nearly complete death)). In addition, the “F: wild oat, herbicidal effect (evaluation scale 0-5)” value in the series with wild oat [21] is 0 (mortality of less than 5% (almost ineffective)). For the same compound, the “H: Italian ryegrass, herbicidal effect” value in the series with Italian ryegrass [22] is 4 (mortality of at least 70% and less than 90%). Moreover, the “A: barnyardgrass, herbicidal effect” value with barnyardgrass [23] is 5 (mortality of 90% or above (nearly complete death)). Further, the “O: beadstraw, herbicidal effect” value in the series on beadstraw [24] was 4 (mortality of at least 70% and less than 90%). In addition, the “N: common chickweed, herbicidal effect” value in the series with common chickweed [25] was 3 (mortality of at least 40% and less than 70%). For the same compound, in the series with common lambsquater [26], the “L: common lambsquater, herbicidal effect” value is 2 (mortality of at least 20% and less than 40%). Besides, the “J: common ragweed, herbicidal effect” value in the series on common ragweed [27] was 3 (mortality of at least 40% and less than 70%). Besides, the “E: giant foxtail, herbicidal effect” value with giant foxtail [28] was 4 (mortality of at least 70% and less than 90%). The “D: large crabgrass, herbicidal effect” value with large crabgrass [29] is 4 (mortality of at least 70% and less than 90%). Also, in the series with posumbu knotweed [30], the “M: posumbu knotweed, herbicidal effect” value is 2 (mortality of at least 20% and less than 40%). Moreover, the “K: redroot pigweed, herbicidal effect” value in the series on redroot pigweed [31] is 1 (mortality of at least 5% and less than 20%). The “I: velvetleaf, herbicidal effect” value in the series on velvetleaf [32] was 4 (mortality of at least 70% and less than 90%). Also, the “G: water foxtail, herbicidal effect” value in the series on water foxtail [33] is reported as 5 (mortality of 90% or above (nearly complete death)). Also, the “F: wild oat, herbicidal effect” value with wild oat [34] is 2 (mortality of at least 20% and less than 40%).
